Key:
[1] = In vitro equilibrium dialysis (RED) protein binding, rat plasma; format: in vitro ADME; details: male, Sprague-Dawley, pH 7.4
Experimental: (§1) Cilnidipine was tested by PsychoGenics using standard methodology in 96-well RED (Rapid Equilibrium Dialysis) plates from Thermo Fisher Scientific. Male Sprague-Dawley plasma and brain were obtained from BioIVT to provide the required protein matrix. Plasma was used undiluted, and brain homogenate was diluted 3 to 1 with PBS, pH 7.4. The protein matrix was spiked with the test compound dissolved in DMSO to achieve a 10 μM solution. Three chambers were used to allow for triplicate measures with a final DMSO concentration of <1% in each. The dialysate compartments of the 96-well dialysis chamber was loaded with PBS, pH 7.4 and the sample side was loaded with equal volume of the spiked protein matrix. The dialysis plate was then sealed and incubated at 37° C. for 4 h. After the incubation, samples were taken from each compartment. The buffer side was diluted with the appropriate matrix (plasma or brain homogenate) and the protein matrix side diluted with phosphate buffer. Resultant samples were then crashed in acetonitrile, centrifuged and the supernatant mixed with an aqueous solution providing samples for UPLC-MS/MS analysis. […] This control sample served as the basis for the determination of recovery. […] Samples were analyzed by UPLC-MS/MS using […] (MRM). The UPLC conditions consisted of a binary LC pump with autosampler, an InertSustain column (C18 column, 2.1×50 mm), utilizing gradient elution. The peak areas of the test compound in the buffer and test samples were used to calculate percent binding and recovery according to the following formulas: […]
(§2) The recovery determination serves as an indicator of reliability of the calculated protein binding value.
(§3) The characterization of protein binding is defined using the following ranges:
(§4) • Low 0 to 50% • Moderate 50 to 90% • High 90 to 99% • Very High>99%

rat plasma proteins = assay: as above; format: in vitro ADME
Experimental: as §1, §2, §3, §4

[2] = In vitro equilibrium dialysis (RED) protein binding, rat brain homogenate; format: in vitro ADME; details: male, Sprague-Dawley, rat, pH 7.4
Experimental: as §1, §2, §3, §4

[3] = system: rat brain homogenate proteins; assay: as above; format: in vitro ADME
Experimental: as §1, §2, §3, §4

participants with SSc-RP = assay: Summary of data: dose response / overall response, Phase 2a study Part A; format: in vivo, human; details: 20 mg dose group
Text: Table S provides a summary of data:

[4] = 10 mg Cilnidipine, Healthy Volunteers, single oral dose; cited from earlier work
Nav 1.7 sodium channel = Nav 1.7 sodium channel (Homo sapiens, UniProt Q15858); details: 20 mg dose of cilnidipine; cited from earlier work
Sequence of Nav 1.7 sodium channel (Q15858 whole entry): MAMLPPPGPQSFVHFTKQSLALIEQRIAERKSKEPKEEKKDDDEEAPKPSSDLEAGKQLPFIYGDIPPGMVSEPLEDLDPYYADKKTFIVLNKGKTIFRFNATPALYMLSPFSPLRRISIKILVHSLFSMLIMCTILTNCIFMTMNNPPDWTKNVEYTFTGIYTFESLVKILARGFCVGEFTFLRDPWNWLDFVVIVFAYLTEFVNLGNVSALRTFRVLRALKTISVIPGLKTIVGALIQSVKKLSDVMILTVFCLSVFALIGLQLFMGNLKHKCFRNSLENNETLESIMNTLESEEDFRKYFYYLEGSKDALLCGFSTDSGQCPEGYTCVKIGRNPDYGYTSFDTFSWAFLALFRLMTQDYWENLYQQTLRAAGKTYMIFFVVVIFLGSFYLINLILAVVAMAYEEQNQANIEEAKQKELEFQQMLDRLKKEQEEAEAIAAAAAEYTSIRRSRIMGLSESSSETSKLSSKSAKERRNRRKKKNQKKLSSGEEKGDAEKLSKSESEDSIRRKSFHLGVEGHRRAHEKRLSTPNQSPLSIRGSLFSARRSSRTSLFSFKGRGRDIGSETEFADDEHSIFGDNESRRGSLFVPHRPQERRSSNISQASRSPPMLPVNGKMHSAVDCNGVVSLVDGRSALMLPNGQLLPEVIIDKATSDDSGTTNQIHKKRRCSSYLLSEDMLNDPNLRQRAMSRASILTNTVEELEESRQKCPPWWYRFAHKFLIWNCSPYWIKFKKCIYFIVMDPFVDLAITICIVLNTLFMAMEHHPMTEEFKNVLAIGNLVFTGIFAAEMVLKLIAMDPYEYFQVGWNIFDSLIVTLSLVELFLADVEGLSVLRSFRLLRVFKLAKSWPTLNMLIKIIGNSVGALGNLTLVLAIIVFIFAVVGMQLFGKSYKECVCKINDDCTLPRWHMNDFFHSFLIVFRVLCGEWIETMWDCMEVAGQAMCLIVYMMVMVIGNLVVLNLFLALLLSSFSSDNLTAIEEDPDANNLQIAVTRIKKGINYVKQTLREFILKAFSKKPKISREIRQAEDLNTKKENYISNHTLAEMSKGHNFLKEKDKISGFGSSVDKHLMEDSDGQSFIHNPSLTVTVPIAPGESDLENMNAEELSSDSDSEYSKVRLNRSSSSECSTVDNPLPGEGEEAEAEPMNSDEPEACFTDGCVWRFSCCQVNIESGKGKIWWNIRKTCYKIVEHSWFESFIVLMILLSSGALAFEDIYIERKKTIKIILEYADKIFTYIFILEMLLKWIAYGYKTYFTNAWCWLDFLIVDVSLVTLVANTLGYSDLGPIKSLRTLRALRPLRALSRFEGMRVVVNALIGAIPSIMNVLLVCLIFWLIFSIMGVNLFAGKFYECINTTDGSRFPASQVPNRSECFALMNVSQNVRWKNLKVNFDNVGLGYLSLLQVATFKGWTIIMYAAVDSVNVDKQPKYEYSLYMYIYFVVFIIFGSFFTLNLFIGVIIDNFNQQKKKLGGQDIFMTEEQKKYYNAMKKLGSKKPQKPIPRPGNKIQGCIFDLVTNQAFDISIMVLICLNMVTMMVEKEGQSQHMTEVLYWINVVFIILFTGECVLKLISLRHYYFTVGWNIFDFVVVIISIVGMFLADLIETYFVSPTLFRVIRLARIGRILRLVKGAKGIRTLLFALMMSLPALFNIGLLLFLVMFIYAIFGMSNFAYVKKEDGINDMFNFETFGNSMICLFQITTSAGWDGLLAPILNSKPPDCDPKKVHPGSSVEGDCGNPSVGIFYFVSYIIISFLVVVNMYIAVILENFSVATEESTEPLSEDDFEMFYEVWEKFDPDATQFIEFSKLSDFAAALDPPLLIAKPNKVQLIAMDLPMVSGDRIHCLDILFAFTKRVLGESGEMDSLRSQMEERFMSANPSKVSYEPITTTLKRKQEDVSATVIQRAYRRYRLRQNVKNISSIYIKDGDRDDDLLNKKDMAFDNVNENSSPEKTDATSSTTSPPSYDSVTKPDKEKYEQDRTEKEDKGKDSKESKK

plasma protein = details: oral; cited from earlier work
[5] = oral dosing; cited from earlier work
[6] = male, Sprague-Dawley, plasma, 4 h, 10 μM, pH 7.4

SMILES: COCCOC(=O)C1=C(C)NC(C)=C(C(=O)OC/C=C/c2ccccc2)C1c1cccc([N+](=O)[O-])c1 (stereo not drawn) [Cilnidipine, cilnidipine]
- recovery at 4 h, 10 μM [1]: 92.9 ± 4.69%
- binding to plasma (rat plasma proteins; male, Sprague-Dawley, 4 h, 10 μM, pH 7.4): 100%
- Protein Binding (%) (rat plasma proteins; [6]): 100.0 ± 0.00%
- Unbound (%) (rat plasma proteins; [6]): 0.0 ± 0.00%
- stability in plasma (rat plasma proteins; plasma): stable
- fraction unbound at 4 h, 10 μM ([2]; brain homogenate): 0.008
- recovery at 4 h, 10 μM [2]: 93.7 ± 3.25%
- stability in brain [3]: stable
- binding to brain ([3]; male, Sprague-Dawley, rat, 4 h, 10 μM, pH 7.4): 99.2%
- Unbound (%) ([3]; male, Sprague-Dawley, rat, brain homogenate, 4 h, 10 μM, pH 7.4): 0.8 ± 0.03%
- Efficacy seen: overall response (participants with SSc-RP): shows best overall
- CL/F, Mean [4]: 304.7 L/h
- inhibition of Nav 1.7 compared to an 1800 mg dose of gabapentin (Nav 1.7 sodium channel): > 6 fold
- protein bound (protein binding in plasma) when given orally (plasma protein): 98%
- time to achieve maximal plasma concentrations (Tmax) [5]: ≤ 2 h

Source: US20240358693A1, “METHODS OF TREATING PAIN” (Aisa Pharma, Inc., priority 2023, published 2024)
